Reference: patent US20110318741A1, “BIOMARKERS FOR THE TREATMENT OF PSORIASIS” (priority 2010, published 2011)

Test system: psoriasis lesional skin
Experiment: Histological analysis (immunohistochemistry, H&E) of skin biopsies from psoriasis patients in a clinical trial
Type: in vivo, human
Details: for CD56 in Epidermis: Biopsy Parameters Median Change (%) / Langerin in Dermis: Biopsy Parameters Median Change (%) / CD11c in Epidermis: Biopsy Parameters Median Change (%) / CD3 in Dermis: Biopsy Parameters Median Change (%) / CD3 in Epidermis: Biopsy Parameters Median Change (%) / Thickness: Biopsy Parameters Median Change (%) / CD11c in Dermis: Biopsy Parameters Median Change (%) / CD56 in Dermis: Biopsy Parameters Median Change (%) / Langerin in Epidermis: Biopsy Parameters Median Change (%): subjects also with PASI values
Method: Skin biopsies were evaluated on 20 patients in a clinical trial, where 20 mg of (S)—N-(2-(1-(3-ethoxy-4-methoxyphenyl)-2-(methylsulfonyl)ethyl)-1,3-dioxoisoindolin-4-yl)acetamide was administered b.i.d. to patients with psoriasis. Skin biopsies were done 4 weeks and 12 weeks post-treatment.
The biopsies were subjected to a histological analysis in which response was assessed in H&E stained sections of skin biopsies and after staining frozen sections of skin biopsies with antibodies to keratin 16. CD3, CD11c. ICAM-1. Langerin, CD56, Foxp3, and HLA-DR. This analysis thus included an assessment of epidermal growth/differentiation, skin infiltration by T-cells and DC subsets, presence of regulatory T-cells, and presence of inflammation-regulating molecules in skin lesions.
The pharmacodynamic effects of (S)—N-(2-(1-(3-ethoxy-4-methoxyphenyl)-2-(methylsulfonyl)ethyl)-1,3-dioxoisoindolin-4-yl)acetamide were studied in skin biopsies from subjects treated with the compound in a phase 2, multi-center, open-label study evaluating the safety, tolerability, and efficacy of the compound in recalcitrant psoriasis vulgaris. Skin biopsies were taken from uninvolved and involved skin at baseline, and from involved skin after treatment with (S)—N-(2-(1-(3-ethoxy-4-methoxyphenyl)-2-(methylsulfonyl)ethyl)-1,3-dioxoisoindolin-4-yl)acetamide 20 mg BID after 4 and 12 weeks.
Skin biopsies were evaluated on 20 patients in this trial. The biopsies were analyzed by immunohistochemistry for a set of cellular markers (keratin 16, CD3. CD11c. ICAM-1, Langerin, CD56, Foxp3, and HLA-DR) to assess epidermal growth/differentiation, skin infiltration by T-cells and dendritic cells (DC), presence of regulatory T-cells, and the presence of inflammation-regulating molecules in skin lesions.

For `CCOc1cc([C@@H](CS(C)(=O)=O)N2C(=O)c3cccc(NC(C)=O)c3C2=O)ccc1OC` [(S)—N-(2-(1-(3-ethoxy-4-methoxyphenyl)-2-(methylsulfonyl)ethyl)-1,3-dioxoisoindolin-4-yl)acetamide], the “CD3+ T cells in the epidermis and dermis” value (20 mg BID) was “significant reductions”, the “CD56+ NK cells in the epidermis” value (20 mg BID) was “significant reductions” and the “CD56 in Epidermis: Biopsy Parameters Median Change (%)” value (Week 4, 20 mg BID, No. 16) was −75.6%. For the same compound, the “Langerin in Dermis: Biopsy Parameters Median Change (%)” value (Week 4, 20 mg BID, No. 17) was −50.0%, the “CD11c in Epidermis: Biopsy Parameters Median Change (%)” value (Week 4, 20 mg BID, No. 18) was −73.1% and the “CD3 in Dermis: Biopsy Parameters Median Change (%)” value (Week 4, 20 mg BID, No. 19) was −24.5%. The “CD3 in Epidermis: Biopsy Parameters Median Change (%)” value (Week 4, 20 mg BID, No. 19) was −35.0%, the “Thickness: Biopsy Parameters Median Change (%)” value (Week 4, 20 mg BID, No. 19) was −22.9% and the “CD11c in Dermis: Biopsy Parameters Median Change (%)” value (Week 4, 20 mg BID, No. 20) was −45.8%. For the same compound, the “CD56 in Dermis: Biopsy Parameters Median Change (%)” value (Week 4, 20 mg BID, No. 20) was −27.6%, the “Langerin in Epidermis: Biopsy Parameters Median Change (%)” value (Week 4, 20 mg BID, No. 20) was 9.49% and the “CD3 T cells in Dermis: Median % change from baseline” value (Week 4, 20 mg b.i.d.) was −24.5%. For the same compound, the “CD3 T cells in Epidermis: Median % change from baseline” value (Week 4, 20 mg b.i.d.) was −35.0%, the “CD11c myeloid DC in Dermis: Median % change from baseline” value (Week 4, 20 mg b.i.d.) was −45.8% and the “CD11c myeloid DC in Epidermis: Median % change from baseline” value (Week 4, 20 mg b.i.d.) was −73.1%. For the same compound, the “CD56 NK cells in Dermis: Median % change from baseline” value (Week 4, 20 mg b.i.d.) was −27.6%, the “CD56 NK cells in Epidermis: Median % change from baseline” value (Week 4, 20 mg b.i.d.) was −75.6% and the “Epidermal Thickness: Median % change from baseline” value (Week 4, 20 mg b.i.d.) was −22.9%. The “Langerin in Dermis: Median % change from baseline” value (Week 4, 20 mg b.i.d.) was −50.0%, the “Langerin in Epidermis: Median % change from baseline” value (Week 4, 20 mg b.i.d.) was 9.5% and the “reduction of epidermal CD11c+ infiltrates” value (Week 4, 20 mg b.i.d.) was 73%. For the same compound, the “CD56 in Epidermis: Biopsy Parameters Median Change (%)” value (Week 12, 20 mg BID, No. 12) was −77.6%, the “Langerin in Dermis: Biopsy Parameters Median Change (%)” value (Week 12, 20 mg BID, No. 12) was −67.0% and the “CD11c in Epidermis: Biopsy Parameters Median Change (%)” value (Week 12, 20 mg BID, No. 13) was −97.5%. For the same compound, the “CD11c in Dermis: Biopsy Parameters Median Change (%)” value (Week 12, 20 mg BID, No. 14) was −56.0%, the “Thickness: Biopsy Parameters Median Change (%)” value (Week 12, 20 mg BID, No. 14) was −34.8% and the “CD3 in Dermis: Biopsy Parameters Median Change (%)” value (Week 12, 20 mg BID, No. 15) was −63.1%. For the same compound, the “CD3 in Epidermis: Biopsy Parameters Median Change (%)” value (Week 12, 20 mg BID, No. 15) was −56.1%, the “CD56 in Dermis: Biopsy Parameters Median Change (%)” value (Week 12, 20 mg BID, No. 15) was −18.2% and the “Langerin in Epidermis: Biopsy Parameters Median Change (%)” value (Week 12, 20 mg BID, No. 15) was 41.67%. The “CD3 T cells in Dermis: Median % change from baseline” value (Week 12, 20 mg b.i.d.) was −62.0%, the “CD3 T cells in Epidermis: Median % change from baseline” value (Week 12, 20 mg b.i.d.) was −47.4% and the “CD11c myeloid DC in Dermis: Median % change from baseline” value (Week 12, 20 mg b.i.d.) was −54.6%. For the same compound, the “CD11c myeloid DC in Epidermis: Median % change from baseline” value (Week 12, 20 mg b.i.d.) was −88.6%, the “CD56 NK cells in Dermis: Median % change from baseline” value (Week 12, 20 mg b.i.d.) was −12.5% and the “CD56 NK cells in Epidermis: Median % change from baseline” value (Week 12, 20 mg b.i.d.) was −73.3%. The “Epidermal Thickness: Median % change from baseline” value (Week 12, 20 mg b.i.d.) was −34.3%, the “Langerin in Dermis: Median % change from baseline” value (Week 12, 20 mg b.i.d.) was −57.9% and the “Langerin in Epidermis: Median % change from baseline” value (Week 12, 20 mg b.i.d.) was 17.1%. The “reduction of epidermal CD11c+ infiltrates” value (Week 12, 20 mg b.i.d.) was 84%, the “cases showing improvement in psoriasis (reduction in epidermal hyperplasia and/or keratin 16 staining)” value (day 29, of the 20 cases analyzed, 20 mg b.i.d.) was 10 cases and the T-cells in biopsies (day 29 and day 85 biopsies, overall reductions not statistically significant) was “reductions”. For the same compound, the “median reduction in epidermal thickness” value (day 85, 20 mg b.i.d.) was 34%, the “epidermal Langerhan's cells” value (day 85 biopsies) was “small increase” and the “cases showing absence of keratin 16 staining” value (day 85 biopsies, 20 mg b.i.d.) was 5 cases. The “cases showing disease improvement” value (day 85 biopsies, of the 20 cases analyzed, 20 mg b.i.d.) was “Nine”, the “CD56+ cells (NK cells or NK-T-cells)” value (during treatment, between week 4 and week 12) was “minimally altered” and the “inflammatory myeloid CD11c+ DCs (TIP-DCs)” value (epidermis and dermis, week 4 and week 12, 20 mg BID) was “major reduction”. The “Langerin in the epidermis” value (not statistically significant, not elevated in the dermis, 20 mg BID) was “slightly elevated”, the “reductions in cellular infiltrates in epidermis and dermis, responders vs non-responders” value (responders: change in PASI of 75% or more at week 12) was “greater among responders” and the “reduction in epidermal thickness” value (week 4, all measured values of thickness, 20 mg b.i.d.) was 23%. For the same compound, the “median reduction of dermal CD11c+ DCs” value (week 4 biopsies, 20 mg b.i.d.) was 45%.
